Values quoted from earlier work in US20190015446A1, “MEDICINAL COMPOSITION FOR IMPROVING PROGNOSIS AFTER RESTART OF PATIENT'S OWN HEARTBEAT” (KEIO UNIVERSITY, priority 2015, published 2019).

Assays:
healthy persons = settings: hydrogen gas 49%
[1] = system: rats after cardiopulmonary arrest resuscitation; settings: inhalation from before to immediately after return of spontaneous circulation

SMILES: [HH] [hydrogen gas]
- Adverse reaction on inhalation (healthy persons): no adverse reaction
- Brain and heart functions and vital prognosis after cardiopulmonary arrest resuscitation [1]: can improve brain and heart functions and vital prognosis
